{"source": "paper PMC6156508", "about": "“GA-Hecate antiviral properties on HCV whole cycle represent a new antiviral class and open the door for the development of broad spectrum antivirals” (Scientific Reports, 2018)", "system": "J6/JFH-1-infected Huh-7.5 cells", "assay": "Apoptosis analysis (active caspase-3 staining)", "format": "cell-based, human", "conditions": "1.25-40 μM; 48 and 72 h p.t.", "experimental": "Apoptosis and Necrosis analysis\nThe ability of GA-Hecate inducing cell death by necrosis and apoptosis was assessed in 48 and 72h post-treatment (p.t) at concentrations: 1.25; 2.5; 5; 10; 20 and 40 μM. For necrosis evaluation, cells were stained using Propidium Iodide at […], which was incubated with the cells 15 minutes prior fixation. Subsequently, cells were fixed using paraformaldehyde 4% in PBS (PFA 4%) for 15 minutes and nuclei stained using DAPI 1 μg/mL for 5 minutes. For apoptosis evaluation, cells were fixed using PFA 4% during 15 minutes, permeabilized using Triton X- 100 (Sigma) 0.1% in PBS and stained using anti-Active Caspase 3 antibody (host: Rabbit) (1:200 in BSA 1% in PBS) (Abcam 13847) for 2h. Then cells were rinsed using PBS and stained using anti-rabbit AlexaFluor 594 (1:500 in BSA 1% PBS) (Thermo Scientific A21207) during 2h. Nuclei were stained using DAPI for 5 minutes. For both assays, cells were counted in 5 randomly chosen fields in duplicate. […]\nFigure S2. Cell death mechanisms triggered by GA-Hecate 48h post-treatment in J6/JFH-1- infected Huh-7.5 cells. A) Apoptosis activation triggered by GA-Hecate was measured by Active Caspase-3 in treated cells. Caspase is artificially represented in green and nuclei were stained using DAPI 1µg/mL (blue). B) Necrosis assessment. […]", "note": "Where a SMILES comes first, the peptide text is derived from it. The star is where a group is joined. Galloyl = O=C(c1cc(O)c(O)c(O)c1)*", "data": [{"compound": "CC(C)C[C@H](NC(=O)[C@H](C)NC(=O)[C@H](CCCCN)NC(=O)[C@H](CCCCN)NC(=O)[C@H](CC(C)C)NC(=O)[C@H](C)NC(=O)[C@H](CCCCN)NC(=O)[C@H](CCCCN)NC(=O)[C@H](CC(C)C)NC(=O)[C@H](CCCCN)NC(=O)[C@H](CCCCN)NC(=O)[C@H](CC(C)C)NC(=O)[C@H](C)NC(=O)[C@H](CCCCN)NC(=O)[C@H](CCCCN)NC(=O)[C@H](CC(C)C)NC(=O)[C@H](C)NC(=O)[C@H](CCCCN)NC(=O)[C@H](CC(C)C)NC(=O)[C@H](C)NC(=O)[C@H](CC(C)C)NC(=O)[C@H](C)NC(=O)[C@H](Cc1ccccc1)NC(=O)c1cc(O)c(O)c(O)c1)C(N)=O", "note": "[GA-Hecate] (Galloyl-FALALKALKKALKKLKKALKKAL-NH2)", "values": [{"measurement": "apoptosis induction (active caspase-3)", "result": "no significate apoptosis induction in any tested time point or concentration"}]}]}
